Key:
[1] = Toxicity in humanized PD-1 mouse xenografted with mouse MC38 cells assessed as effect on body weight at 150 to 600 mg/kg, po bid for 14 days in combination with PD-1 antibody at 3 mg/kg, ip qod for 8 days; format: organism-based; settings: in vivo, 336 h, dose 150-600 mg/kg, time 14 day
MC-38 [2] = assay: Antitumor activity against mouse MC38 cells xenograted in po dosed humanized PD-1 mouse assessed as tumor growth inhibition administered twice for 14 days in combination with PD-1 antibody at 3 mg/kg, ip qod for 8 days by digital caliper method; format: functional, organism-based; settings: time 14.0 day
MC-38 [3] = assay: Antitumor activity against mouse MC38 cells xenograted in humanized PD-1 mouse assessed as tumor growth inhibition at 600 mg/kg, po bid for 14 days in combination with PD-1 antibody at 3 mg/kg, ip qod for 8 days by digital caliper method relative to control; format: functional; settings: MC-38, 336 h, time 14 day, read-out: TGI
MC-38 [4] = assay: Antitumor activity against mouse MC38 cells xenograted in humanized PD-1 mouse assessed as tumor growth inhibition at 300 mg/kg, po bid for 14 days in combination with PD-1 antibody at 3 mg/kg, ip qod for 8 days by digital caliper method relative to control; format: functional; settings: MC-38, 336 h, time 14 day, read-out: TGI
MC-38 [5] = assay: Antitumor activity against mouse MC38 cells xenograted in humanized PD-1 mouse assessed as tumor growth inhibition at 150 mg/kg, po bid for 14 days in combination with PD-1 antibody at 3 mg/kg, ip qod for 8 days by digital caliper method relative to control; format: functional; settings: MC-38, 336 h, time 14 day, read-out: TGI
[6] = target: Indoleamine 2,3-dioxygenase 1 (Mus musculus) (UniProt P28776); assay: In vivo inhibition of IDO1 in C57BL/6 mouse assessed as reduction in kynurenine level in plasma at 300 mg/kg, po administered as single dose measured after 2 hrs relative to control; format: functional, organism-based
Chain of Indoleamine 2,3-dioxygenase 1 (Mus musculus) (P28776 whole entry, looked up): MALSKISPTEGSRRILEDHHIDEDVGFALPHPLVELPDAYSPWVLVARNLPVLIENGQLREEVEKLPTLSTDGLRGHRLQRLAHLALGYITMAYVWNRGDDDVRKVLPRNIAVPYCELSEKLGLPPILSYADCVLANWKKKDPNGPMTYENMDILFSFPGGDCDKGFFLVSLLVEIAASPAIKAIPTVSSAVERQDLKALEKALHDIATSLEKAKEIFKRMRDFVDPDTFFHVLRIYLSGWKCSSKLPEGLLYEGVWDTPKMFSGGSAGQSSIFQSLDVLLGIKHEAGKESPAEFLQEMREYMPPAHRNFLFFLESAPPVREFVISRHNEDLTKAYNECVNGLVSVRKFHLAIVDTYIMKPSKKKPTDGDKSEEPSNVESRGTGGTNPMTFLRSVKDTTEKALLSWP

[7] = Half life in human liver microsomes; format: ADME, Microsome
[8] = Half life in rat liver microsomes; format: ADME, Microsome
[9] = Protein binding in human plasma by rapid equilibrium dialysis method; format: ADME, cell-free; settings: read-out: PPB (converted)
[10] = Protein binding in dog plasma by rapid equilibrium dialysis method; format: ADME, cell-free, Canis lupus familiaris; settings: read-out: PPB (converted)
[11] = Protein binding in rat plasma by rapid equilibrium dialysis method; format: ADME, cell-free; settings: read-out: PPB (converted)
[12] = target: Voltage-gated inwardly rectifying potassium channel KCNH2 (Homo sapiens, UniProt Q12809); assay: Inhibition of human ERG expressed in CHO-K1 cells at -90 mV holding potential by automated patch-clamp method; format: cell-based
Chain of Voltage-gated inwardly rectifying potassium channel KCNH2 (Q12809 whole entry): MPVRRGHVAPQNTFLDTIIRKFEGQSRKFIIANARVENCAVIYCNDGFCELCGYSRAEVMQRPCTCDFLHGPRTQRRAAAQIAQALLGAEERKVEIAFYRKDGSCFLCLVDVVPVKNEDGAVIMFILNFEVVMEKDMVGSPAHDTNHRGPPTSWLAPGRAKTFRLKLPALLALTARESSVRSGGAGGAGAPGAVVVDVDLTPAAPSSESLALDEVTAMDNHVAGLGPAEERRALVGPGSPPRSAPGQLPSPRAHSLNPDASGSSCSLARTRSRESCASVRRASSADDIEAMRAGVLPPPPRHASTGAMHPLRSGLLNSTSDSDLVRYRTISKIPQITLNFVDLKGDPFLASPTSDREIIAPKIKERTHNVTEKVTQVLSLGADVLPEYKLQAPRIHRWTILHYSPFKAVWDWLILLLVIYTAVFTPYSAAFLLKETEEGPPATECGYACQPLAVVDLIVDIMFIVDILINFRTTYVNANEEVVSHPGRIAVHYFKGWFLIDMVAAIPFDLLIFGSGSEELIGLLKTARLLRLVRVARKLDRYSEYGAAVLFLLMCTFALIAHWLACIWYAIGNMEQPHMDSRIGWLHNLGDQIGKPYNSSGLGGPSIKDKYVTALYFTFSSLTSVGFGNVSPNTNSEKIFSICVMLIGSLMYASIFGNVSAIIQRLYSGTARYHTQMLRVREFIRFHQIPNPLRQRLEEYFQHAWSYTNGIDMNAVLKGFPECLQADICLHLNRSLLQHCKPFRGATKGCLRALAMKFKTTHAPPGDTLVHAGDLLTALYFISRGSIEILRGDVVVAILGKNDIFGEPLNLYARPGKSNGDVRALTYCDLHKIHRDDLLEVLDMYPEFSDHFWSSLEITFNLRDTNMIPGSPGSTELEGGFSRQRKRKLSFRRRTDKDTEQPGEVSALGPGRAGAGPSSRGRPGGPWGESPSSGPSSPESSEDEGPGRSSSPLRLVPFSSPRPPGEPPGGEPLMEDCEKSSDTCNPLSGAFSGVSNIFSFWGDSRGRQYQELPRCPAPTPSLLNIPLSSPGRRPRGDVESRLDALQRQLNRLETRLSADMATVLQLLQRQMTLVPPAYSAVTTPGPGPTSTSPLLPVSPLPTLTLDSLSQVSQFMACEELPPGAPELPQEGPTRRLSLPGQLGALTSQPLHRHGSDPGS

Cytochrome P450 3A4 = Cytochrome P450 3A4 (Homo sapiens, UniProt P08684); assay: Inhibition of CYP3A4 in human liver microsomes using midazolam as substrate incubated for 10 mins in presence of NADPH by UHPLC-MS/MS analysis; format: ADME
Chain of Cytochrome P450 3A4 (P08684 whole entry): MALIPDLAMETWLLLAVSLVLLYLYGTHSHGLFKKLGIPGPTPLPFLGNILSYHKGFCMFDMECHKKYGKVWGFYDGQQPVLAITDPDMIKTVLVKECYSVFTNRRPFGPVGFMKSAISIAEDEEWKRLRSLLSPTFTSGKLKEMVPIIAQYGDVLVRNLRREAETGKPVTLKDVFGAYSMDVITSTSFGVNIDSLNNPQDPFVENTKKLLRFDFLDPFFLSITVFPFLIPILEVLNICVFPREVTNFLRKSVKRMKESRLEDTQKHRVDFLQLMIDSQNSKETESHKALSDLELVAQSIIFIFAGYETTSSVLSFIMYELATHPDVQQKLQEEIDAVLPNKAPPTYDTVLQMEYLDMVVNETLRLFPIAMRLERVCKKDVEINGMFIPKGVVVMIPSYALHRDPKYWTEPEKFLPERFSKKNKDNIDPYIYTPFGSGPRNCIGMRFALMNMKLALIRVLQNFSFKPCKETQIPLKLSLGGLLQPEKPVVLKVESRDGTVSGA

Cytochrome P450 2D6 = Cytochrome P450 2D6 (Homo sapiens, UniProt P10635); assay: Inhibition of CYP2D6 in human liver microsomes using dextromethorphan as substrate incubated for 10 mins in presence of NADPH by UHPLC-MS/MS analysis; format: ADME
Chain of Cytochrome P450 2D6 (P10635 whole entry): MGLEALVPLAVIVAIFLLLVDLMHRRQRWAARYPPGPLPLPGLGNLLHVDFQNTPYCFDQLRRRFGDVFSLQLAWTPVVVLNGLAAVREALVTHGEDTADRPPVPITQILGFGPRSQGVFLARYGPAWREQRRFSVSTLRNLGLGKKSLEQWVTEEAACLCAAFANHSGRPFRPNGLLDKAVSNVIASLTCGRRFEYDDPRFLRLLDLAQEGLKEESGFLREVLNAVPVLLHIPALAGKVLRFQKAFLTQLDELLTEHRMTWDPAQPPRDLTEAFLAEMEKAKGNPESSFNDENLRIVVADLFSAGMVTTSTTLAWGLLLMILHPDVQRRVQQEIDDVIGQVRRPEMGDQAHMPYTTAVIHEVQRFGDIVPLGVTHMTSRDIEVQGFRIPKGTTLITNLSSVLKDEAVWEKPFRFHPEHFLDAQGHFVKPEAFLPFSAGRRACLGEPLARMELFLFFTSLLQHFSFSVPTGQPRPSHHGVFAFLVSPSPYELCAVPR

Cytochrome P450 2C19 = Cytochrome P450 2C19 (Homo sapiens, UniProt P33261); assay: Inhibition of CYP2C19 in human liver microsomes using S-mephenytoin as substrate incubated for 10 mins in presence of NADPH by UHPLC-MS/MS analysis; format: ADME; settings: read-out: INH
Chain of Cytochrome P450 2C19 (P33261 whole entry): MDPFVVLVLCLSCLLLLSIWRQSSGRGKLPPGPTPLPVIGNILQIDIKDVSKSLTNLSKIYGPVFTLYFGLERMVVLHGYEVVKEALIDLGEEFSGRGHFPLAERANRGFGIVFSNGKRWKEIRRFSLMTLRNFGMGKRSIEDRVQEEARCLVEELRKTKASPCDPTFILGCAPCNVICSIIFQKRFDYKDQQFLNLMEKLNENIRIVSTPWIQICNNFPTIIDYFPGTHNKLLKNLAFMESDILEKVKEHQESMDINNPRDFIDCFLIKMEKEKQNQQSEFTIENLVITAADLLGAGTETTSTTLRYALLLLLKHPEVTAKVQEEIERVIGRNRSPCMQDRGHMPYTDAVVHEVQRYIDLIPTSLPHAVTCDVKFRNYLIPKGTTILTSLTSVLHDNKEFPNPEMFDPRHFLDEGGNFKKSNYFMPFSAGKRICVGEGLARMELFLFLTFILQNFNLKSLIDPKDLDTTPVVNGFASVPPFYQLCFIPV

Cytochrome P450 2C9 = Cytochrome P450 2C9 (Homo sapiens, UniProt P11712); assay: Inhibition of CYP2C9 in human liver microsomes using tolbutamide as substrate incubated for 10 mins in presence of NADPH by UHPLC-MS/MS analysis; format: ADME
Chain of Cytochrome P450 2C9 (P11712 whole entry): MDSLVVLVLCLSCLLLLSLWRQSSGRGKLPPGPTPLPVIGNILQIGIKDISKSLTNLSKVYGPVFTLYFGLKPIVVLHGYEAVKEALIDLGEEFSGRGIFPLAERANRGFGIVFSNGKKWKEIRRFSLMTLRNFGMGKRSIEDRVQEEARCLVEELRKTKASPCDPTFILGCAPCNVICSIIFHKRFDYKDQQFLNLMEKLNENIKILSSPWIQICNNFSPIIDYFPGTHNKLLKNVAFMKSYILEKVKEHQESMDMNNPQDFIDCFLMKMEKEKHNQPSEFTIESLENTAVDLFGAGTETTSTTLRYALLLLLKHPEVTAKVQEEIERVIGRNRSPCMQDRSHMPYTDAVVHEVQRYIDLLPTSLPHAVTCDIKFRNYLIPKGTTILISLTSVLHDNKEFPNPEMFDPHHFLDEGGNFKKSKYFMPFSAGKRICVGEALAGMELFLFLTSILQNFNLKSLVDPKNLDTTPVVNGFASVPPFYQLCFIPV

Cytochrome P450 1A2 = target: T1, Cytochrome P450 1A2 (Homo sapiens, UniProt P05177); assay: Inhibition of CYP1A2 in human liver microsomes using phenacetin as substrate incubated for 10 mins in presence of NADPH by UHPLC-MS/MS analysis; format: ADME
T1 sequence (P05177 whole entry): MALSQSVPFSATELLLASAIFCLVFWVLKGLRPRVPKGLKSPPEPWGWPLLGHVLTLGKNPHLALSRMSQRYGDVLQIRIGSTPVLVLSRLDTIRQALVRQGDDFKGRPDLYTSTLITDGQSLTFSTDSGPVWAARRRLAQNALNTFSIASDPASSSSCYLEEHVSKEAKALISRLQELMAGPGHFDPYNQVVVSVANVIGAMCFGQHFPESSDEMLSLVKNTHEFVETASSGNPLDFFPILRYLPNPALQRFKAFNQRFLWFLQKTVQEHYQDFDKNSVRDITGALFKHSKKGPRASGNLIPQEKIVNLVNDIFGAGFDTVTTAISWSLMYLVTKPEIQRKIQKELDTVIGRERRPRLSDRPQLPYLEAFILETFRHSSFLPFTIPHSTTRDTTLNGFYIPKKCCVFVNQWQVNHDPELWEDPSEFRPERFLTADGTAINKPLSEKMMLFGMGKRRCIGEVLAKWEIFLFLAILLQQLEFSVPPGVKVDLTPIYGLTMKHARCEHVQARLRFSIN

[13] = Oral bioavailability in C57BL/6 mouse at 3 mg/kg measured up to 24 hrs; format: ADME, organism-based; settings: in vivo
[14] = Clearance in C57BL/6 mouse at 3 mg/kg, po measured up to 24 hrs; format: ADME, organism-based; settings: in vivo
[15] = Half life in C57BL/6 mouse at 3 mg/kg, po measured up to 24 hrs; format: ADME, organism-based; settings: in vivo
[16] = AUC in C57BL/6 mouse at 3 mg/kg, po measured up to 24 hrs; format: ADME, organism-based; set-up: route oral, dose 3 mg/kg, time <=24; settings: in vivo
[17] = Cmax in C57BL/6 mouse at 3 mg/kg, po measured up to 24 hrs; format: ADME, organism-based; set-up: route oral, dose 3 mg/kg, time <=24; settings: in vivo
[18] = Oral bioavailability in Beagle dog at 2 mg/kg measured up to 24 hrs; format: ADME, organism-based, Canis lupus familiaris; settings: in vivo
[19] = Clearance in Beagle dog at 2 mg/kg, po measured up to 24 hrs; format: ADME, organism-based, Canis lupus familiaris; settings: in vivo
[20] = Half life in Beagle dog at 2 mg/kg, po measured up to 24 hrs; format: ADME, organism-based, Canis lupus familiaris; settings: in vivo
[21] = AUC in Beagle dog at 2 mg/kg, po measured up to 24 hrs; format: ADME, organism-based, Canis lupus familiaris; set-up: route oral, dose 2 mg/kg, time <=24; settings: in vivo
[22] = Cmax in Beagle dog at 2 mg/kg, po measured up to 24 hrs; format: ADME, organism-based, Canis lupus familiaris; set-up: route oral, dose 2 mg/kg, time <=24; settings: in vivo
[23] = Oral bioavailability in Sprague-Dawley rat at 3 mg/kg measured up to 24 hrs; format: ADME, organism-based; settings: in vivo
[24] = Clearance in Sprague-Dawley rat at 3 mg/kg, po measured up to 24 hrs; format: ADME, organism-based; settings: in vivo
[25] = Half life in Sprague-Dawley rat at 3 mg/kg, po measured up to 24 hrs; format: ADME, organism-based; settings: in vivo
[26] = AUC in Sprague-Dawley rat at 3 mg/kg, po measured up to 24 hrs; format: ADME, organism-based; set-up: route oral, dose 3 mg/kg, time <=24; settings: in vivo
[27] = Cmax in Sprague-Dawley rat at 3 mg/kg, po measured up to 24 hrs; format: ADME, organism-based; set-up: route oral, dose 3 mg/kg, time <=24; settings: in vivo
[28] = target: T2, Indoleamine 2,3-dioxygenase 1 (Homo sapiens, UniProt P14902); assay: Inhibition of IDO1 in IFNgamma-stimulated human HeLa cells using L-tryptophan as substrate measured after 48 hrs
T2 sequence (P14902 whole entry): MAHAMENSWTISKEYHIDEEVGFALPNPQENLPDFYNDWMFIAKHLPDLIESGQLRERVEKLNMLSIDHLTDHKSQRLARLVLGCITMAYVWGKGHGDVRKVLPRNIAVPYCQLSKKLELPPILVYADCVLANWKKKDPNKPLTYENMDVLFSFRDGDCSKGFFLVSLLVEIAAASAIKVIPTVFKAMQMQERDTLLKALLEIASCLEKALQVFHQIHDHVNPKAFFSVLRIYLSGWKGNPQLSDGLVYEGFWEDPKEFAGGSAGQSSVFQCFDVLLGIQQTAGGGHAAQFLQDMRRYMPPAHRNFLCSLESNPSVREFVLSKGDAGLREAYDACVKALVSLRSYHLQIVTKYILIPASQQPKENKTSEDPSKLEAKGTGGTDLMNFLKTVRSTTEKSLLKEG

[29] = target: T2, Indoleamine 2,3-dioxygenase 1; assay: Inhibition of human IDO1 expressed in Escherichia coli Rosetta using tryptophan as substrate incubated for 1 hr by methylene blue based assay
[30] = target: Tryptophan 2,3-dioxygenase (Homo sapiens, UniProt P48775); assay: Inhibition of human TDO expressed in Escherichia coli Rosetta using tryptophan as substrate incubated for 1 hr by methylene blue based assay
Chain of Tryptophan 2,3-dioxygenase (P48775 whole entry): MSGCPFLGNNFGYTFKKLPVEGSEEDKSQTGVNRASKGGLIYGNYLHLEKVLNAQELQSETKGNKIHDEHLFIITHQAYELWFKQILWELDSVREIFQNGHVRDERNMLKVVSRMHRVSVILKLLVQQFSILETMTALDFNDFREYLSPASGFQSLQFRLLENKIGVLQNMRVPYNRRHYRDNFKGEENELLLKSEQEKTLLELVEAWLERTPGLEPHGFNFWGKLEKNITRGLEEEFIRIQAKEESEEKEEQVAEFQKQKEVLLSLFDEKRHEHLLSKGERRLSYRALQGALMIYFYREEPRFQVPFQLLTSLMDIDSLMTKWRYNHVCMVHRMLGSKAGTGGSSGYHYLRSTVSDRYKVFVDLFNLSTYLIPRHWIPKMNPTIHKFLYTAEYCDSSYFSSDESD

In the case of NS(=O)(=O)N1CCC(C(=O)/C(=N/O)Nc2ccc(F)c(Br)c2)CC1, the Activity [1] is reported as “Non-Toxic”, the TGI (MC-38 [2]) is reported as “Dose-dependent effect” and the inhibition in vivo at 600 mg/kg (MC-38 [3]) is reported as 86.8%. The inhibition in vivo at 300 mg/kg (MC-38 [4]) was 71.7%, the inhibition in vivo at 150 mg/kg (MC-38 [5]) was 60.3% and the inhibition [6] was 87.8%. For the same molecule, the half-life [7] was 5.81 h, the half-life [8] was 1.56 h and the fraction unbound [9] was 0.036. For the same molecule, the fraction unbound [10] was 0.04, the fraction unbound [11] was 0.076 and the INH [12] was over 30 µM. The INH (Cytochrome P450 3A4) was over 10 µM, the INH (Cytochrome P450 2D6) was over 10 µM and the IC50 (Cytochrome P450 2C19) was over 10000 nM. The INH (Cytochrome P450 2C9) was over 10 µM, the INH (Cytochrome P450 1A2) was over 10 µM and the bioavailability [13] was 44%. It also gave a clearance [14] of 61.2 mL/min/kg, a half-life [15] of 1.21 h and an AUC at 24 h [16] of 358 ng·h/mL. The Cmax [17] was 127 ng/mL, the bioavailability [18] was 102% and the clearance [19] was 9.3 mL/min/kg. The half-life [20] was 3.04 h, the AUC at 24 h [21] was 3630 ng·h/mL and the Cmax [22] was 742 ng/mL. It also gave a bioavailability [23] of 58.8%, a clearance [24] of 16.7 mL/min/kg and a half-life [25] of 6.14 h. It also gave an AUC at 24 h [26] of 1530 ng·h/mL, a Cmax [27] of 179 ng/mL and an IC50 [28] of 45 nM. It also gave an IC50 [29] of 63 nM and an IC50 [30] of 62500 nM.

For O=C(/C(=N/O)Nc1ccc(F)c(Br)c1)C1CCN(C(=O)NCc2ccccc2)CC1, the IC50 [28] was 28 nM, the IC50 [29] was 43 nM and the IC50 [30] was 89800 nM.

For O/N=C(/CC1CCCCC1)Nc1ccc(F)c(Br)c1, the IC50 [28] was 578 nM, the IC50 [29] was 497 nM and the IC50 [30] was over 100000 nM.

Molecule O=C(Nc1ccccc1)[C@H]1CC[C@H](C(=O)/C(=N/O)Nc2ccc(F)c(Br)c2)CC1 has an IC50 [28] of 197 nM, an IC50 [29] of 150 nM and an IC50 [30] of over 100000 nM.

O=C(NC[C@H]1CC[C@H](C(=O)/C(=N/O)Nc2ccc(F)c(Br)c2)CC1)c1ccccc1 gave an IC50 [28] of 204 nM, an IC50 [29] of 80 nM and an IC50 [30] of 81000 nM.

For O=C(/C(=N/O)Nc1ccc(F)c(Br)c1)C1CCN(C(=O)c2ccccc2)CC1, the IC50 [28] was 281 nM, the IC50 [29] was 106 nM and the IC50 [30] was over 100000 nM.

NS(=O)(=O)NC[C@H]1CC[C@H](C(=O)/C(=N/O)Nc2ccc(F)c(Br)c2)CC1 showed an IC50 [28] of 21 nM, an IC50 [29] of 198 nM and an IC50 [30] of 58700 nM.

With O=C(/C(=N/O)Nc1ccc(F)c(Br)c1)C1CCN(c2ccccc2)CC1 the IC50 [28] was 1020 nM, the IC50 [29] was 149 nM and the IC50 [30] was over 100000 nM.

In the case of O=C(/C(=N/O)Nc1ccc(F)c(Br)c1)C1CCN(C(=O)Nc2ccccc2)CC1, the IC50 [28] is reported as 54 nM, the IC50 [29] is reported as 40 nM and the IC50 [30] is reported as 58000 nM.

Reference: ChEMBL document CHEMBL4673401 (ACS Med Chem Lett, 2021)
